Measured values taken from patent US7229825B2, “Double-transfected cell line useful for the identification of transport inhibitors” (Deutches Krebsforschungszentrum Stiftung des Offentlichen …, priority 2001, dated 2007).

Key:
[1] = molecular target: T1, human OATP8 (MDCK-OATP8 cells) (Homo sapiens, UniProt Q9NPD5); assay: [3H]BSP accumulation and efflux in MDCK-OATP8 cells on Transwell membrane inserts; format: cell-based; set-up: expressed in transfected cells
T1 sequence (Q9NPD5 1-702): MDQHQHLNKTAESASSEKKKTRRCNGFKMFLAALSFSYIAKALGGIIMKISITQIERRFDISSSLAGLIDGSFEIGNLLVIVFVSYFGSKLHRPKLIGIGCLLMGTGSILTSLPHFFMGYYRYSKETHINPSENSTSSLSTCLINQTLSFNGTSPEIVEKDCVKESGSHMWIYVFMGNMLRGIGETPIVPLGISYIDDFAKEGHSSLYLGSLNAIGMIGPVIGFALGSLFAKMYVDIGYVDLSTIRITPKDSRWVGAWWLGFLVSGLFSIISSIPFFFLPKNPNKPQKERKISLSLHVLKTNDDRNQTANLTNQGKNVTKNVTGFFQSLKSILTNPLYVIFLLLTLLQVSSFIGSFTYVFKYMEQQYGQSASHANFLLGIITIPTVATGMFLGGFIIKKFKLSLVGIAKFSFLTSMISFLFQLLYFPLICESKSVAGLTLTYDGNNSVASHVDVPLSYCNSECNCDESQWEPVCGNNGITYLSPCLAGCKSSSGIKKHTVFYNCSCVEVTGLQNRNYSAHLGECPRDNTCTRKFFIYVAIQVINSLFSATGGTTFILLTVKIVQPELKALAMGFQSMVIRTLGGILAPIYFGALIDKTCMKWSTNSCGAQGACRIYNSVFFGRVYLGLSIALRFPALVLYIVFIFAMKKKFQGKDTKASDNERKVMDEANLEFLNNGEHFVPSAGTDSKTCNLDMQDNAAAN

[2] = system: OATP2 and MRP2 (MDCK-OATP2/MRP2 cells); assay: Transcellular transport of BSP by MDCK-OATP2/MRP2 cells; format: cell-based, human; details: 1 μM [3H]BSP basolateral, 30 min, 37° C.; MDCK-OATP2/MRP2 vs MDCK-Co and MDCK-OATP2
From the text: FIG. 13: Transcellular transport of BSP by MDCK-OATP2/MRP2 cells.
Proteins were separated by SDS-PAGE (7.5% gels).

MDCK-MRP2/OATP8 cells = assay: Radio-HPLC analysis of [3H]BSP after transport by MDCK-MRP2/OATP8 cells; format: in vitro ADME; details: 1 μM [3H]BSP basolateral, 30 min, acivicin 5 mM
Experimental: HPLC Analysis of [^3H]BSP. MDCK-MRP2/OATP8 cells grown on Transwell membrane inserts were incubated with 1 μM [^3H]BSP in the basolateral compartment for 30 min at 37° C. after a pre-incubation with 5 mM acivicin, an inhibitor of g-glutamyltransferase (Allen et al. 1980), in both compartments for 30 min at 37° C. The radioactivity in the apical compartment and in the cell lysate was analyzed by HPLC. Reversed-phase HPLC analyses on a C18 Hypersil column ([…] particles; Shandon, Runcorn, UK) were performed as described (Cui et al. 2001) using a linear gradient elution from 100% buffer A (45% methanol/55% water containing […] tetrabutylammonium hydroxide at pH 6.0) to 100% buffer B (90% methanol/10% water containing 2 mM tetrabutylammonium hydroxide at pH 6.0) at a flow rate of 1 ml/min. [^3H]BSP-SG was synthesized for the HPLC analyses by incubating 1 mM GSH, 0.4 mM [^3H]BSP (1 μCi), and 5 mM acivicin with 350 μl mouse liver cytosol in a final volume of 500 μl for 1 h at 37° C. After deproteinization with 3 volume of methanol 200 μl supernatant was analyzed by HPLC as described above.

human MRP2 = human MRP2 (Homo sapiens, UniProt Q92887); assay: ATP-dependent transport of [3H]BSP into inside-out membrane vesicles from HEK-MRP2 cells; format: biochemical
Experimental: Vesicle Transport Studies. Transport of [^3H]BSP into membrane vesicles was measured by the rapid filtration method (Keppler et al. 1998). Briefly, membrane vesicles (30 μg protein) were incubated in the presence of 4 mM ATP, 10 mM creatine phosphate, 100 μg/ml creatine kinase, and [^3H]BSP in an incubation buffer (250 mM sucrose, 10 mM Tris/HCl, pH 7.4) in a final volume of 55 μl at 37° C. Aliquots (15 μl) were taken at the indicated time points, diluted in 1 ml ice-cold incubation buffer, and immediately filtered through presoaked nitrocellulose membrane (0.2 μm pore size, Schleicher & Schüll, Dassel, Germany). Filters were rinsed twice with 5 ml of incubation buffer, dissolved in liquid scintillation fluid, and counted for radioactivity. In control experiments, ATP was replaced by an equal concentration of 5′-AMP. ATP-dependent transport was calculated by subtracting values obtained in the presence of 5′-AMP from those obtained in the presence of ATP.

[3] = system: human OATP8 and MRP2 (MDCK-MRP2/OATP8 cells)
Experimental: For transport assays MDCKII cells were grown on Transwell membrane inserts (24 mm diameter, 0.4 μm pore size, Corning Costar) at confluency for 3 days and induced with 10 mM sodium butyrate for 24 h. […] After the time periods indicated, the radioactivity in the opposite compartments was measured. The intracellular accumulation of the radioactivity was determined by lysing the cells with 2 ml 0.2% SDS in water and measuring the radioactivity in cell lysates.
To study the transcellular transport of Fluo-3, cells were incubated with 2 μM Fluo-3 in the basolateral compartments at 37° C. for 30 min.
To study the transcellular transport of rifampicin, cells were incubated with 50 μM rifampicin in the basolateral compartments at 37° C. for 30 min. To determine the concentration of rifampicin in the apical compartments its absorption at 475 nm was measured with a spectrophotometer (Ultrospec III, Amersham-Pharmacia, Freiburg, Germany). A calibration curve for the calculation of the concentrations of rifampicin was determined in the concentration range between 1 and 50 μM.

Sequence of human MRP2 (Q92887 whole entry): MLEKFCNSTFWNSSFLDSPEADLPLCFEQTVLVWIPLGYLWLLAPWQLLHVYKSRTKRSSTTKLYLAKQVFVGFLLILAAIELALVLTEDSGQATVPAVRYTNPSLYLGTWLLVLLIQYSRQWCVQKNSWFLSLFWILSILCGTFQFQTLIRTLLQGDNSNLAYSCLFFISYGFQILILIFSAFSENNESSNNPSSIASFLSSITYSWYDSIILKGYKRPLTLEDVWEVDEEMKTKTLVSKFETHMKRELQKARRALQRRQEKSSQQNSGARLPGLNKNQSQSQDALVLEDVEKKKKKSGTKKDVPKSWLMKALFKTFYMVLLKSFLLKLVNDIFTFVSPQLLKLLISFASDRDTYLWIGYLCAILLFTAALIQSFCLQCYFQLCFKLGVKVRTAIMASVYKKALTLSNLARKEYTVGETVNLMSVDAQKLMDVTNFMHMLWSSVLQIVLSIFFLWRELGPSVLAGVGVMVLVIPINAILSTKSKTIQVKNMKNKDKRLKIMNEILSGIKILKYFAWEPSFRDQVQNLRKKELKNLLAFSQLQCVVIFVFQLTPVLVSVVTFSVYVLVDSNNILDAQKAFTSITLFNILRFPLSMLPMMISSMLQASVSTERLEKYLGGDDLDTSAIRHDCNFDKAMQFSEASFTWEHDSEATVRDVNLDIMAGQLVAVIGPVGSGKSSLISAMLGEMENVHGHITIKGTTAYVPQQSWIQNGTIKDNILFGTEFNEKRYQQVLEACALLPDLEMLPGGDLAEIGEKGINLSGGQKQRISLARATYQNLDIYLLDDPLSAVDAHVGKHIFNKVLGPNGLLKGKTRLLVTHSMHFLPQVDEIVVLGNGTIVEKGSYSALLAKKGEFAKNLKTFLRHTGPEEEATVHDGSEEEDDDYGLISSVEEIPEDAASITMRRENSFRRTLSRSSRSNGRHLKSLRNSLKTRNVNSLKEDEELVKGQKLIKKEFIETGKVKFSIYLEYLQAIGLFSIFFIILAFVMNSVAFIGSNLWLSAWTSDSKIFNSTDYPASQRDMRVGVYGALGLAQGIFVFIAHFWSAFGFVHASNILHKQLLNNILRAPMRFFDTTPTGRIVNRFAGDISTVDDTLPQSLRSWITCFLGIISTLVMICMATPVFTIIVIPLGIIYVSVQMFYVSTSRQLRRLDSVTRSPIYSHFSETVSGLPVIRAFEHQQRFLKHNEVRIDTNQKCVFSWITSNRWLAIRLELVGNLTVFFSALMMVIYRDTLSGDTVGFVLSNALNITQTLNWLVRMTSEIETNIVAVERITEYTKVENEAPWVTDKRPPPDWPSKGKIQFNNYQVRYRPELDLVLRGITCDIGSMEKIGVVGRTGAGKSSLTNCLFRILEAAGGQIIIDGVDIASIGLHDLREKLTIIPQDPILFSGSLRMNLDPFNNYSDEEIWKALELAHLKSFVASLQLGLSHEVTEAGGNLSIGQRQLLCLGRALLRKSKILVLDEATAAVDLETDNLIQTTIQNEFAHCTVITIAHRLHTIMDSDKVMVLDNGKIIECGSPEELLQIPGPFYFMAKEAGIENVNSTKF

O=C1OC(c2ccc(O)c(S(=O)(=O)O)c2)(c2ccc(O)c(S(=O)(=O)O)c2)c2c(Br)c(Br)c(Br)c(Br)c21 [BSP, sulfobromophthalein]
intracellular accumulation of [3H]BSP ([1]; 1 μM basolateral, MDCK-OATP8 or MDCK-MRP2/OATP8 vs MDCK-Co and MDCK-MRP2 cells): significantly higher | efflux of [3H]BSP, route of release ([1]; MDCK-OATP8 cells loaded with 1 μM for 30 min, then 30 min efflux): mainly across the basolateral membrane | rate of transcellular transport of BSP [2]: significantly higher | radioactivity in the apical compartment and in the cells with the retention time of unconjugated [3H]BSP (MDCK-MRP2/OATP8 cells): > 98% | transport of [3H]BSP into membrane vesicles from HEK-MRP2 cells (human MRP2; 1 μM, ATP vs 5'-AMP): transported ATP-dependently | accumulation of [3H]BSP in membrane vesicles (human MRP2; HEK-MRP2 vs control-transfected HEK-Co vesicles): significantly higher | intracellular [3H]BSP level remaining after 30 min efflux [3]: significantly lower | transcellular transport (basolateral to apical) [3]: marked transcellular transport | rate of transfer from the basolateral to the apical compartment, double-transfected versus single-transfected cells ([3]; human, pH 7.3): at least 6 times
